Data from PubChem BioAssay (NCI).
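Tested at 5 concentrations; 48 h exposure; 96-well plates; endpoints linearly interpolated, else capped at highest concentration. The concentration for full growth arrest is given as TGI.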

What was measured:
Test in all cases: NCI-60 cell line screen, 48 h
HL-60(TB) leukemia = system: HL-60(TB) leukemia
T-47D breast = system: T-47D breast
SN12C renal = system: SN12C renal
HCT-116 colon = system: HCT-116 colon
UACC-257 melanoma = system: UACC-257 melanoma
KM12 colon = system: KM12 colon
NCI-H460 lung = system: NCI-H460 lung
SK-OV-3 ovarian = system: SK-OV-3 ovarian
MCF7 breast = system: MCF7 breast
A498 renal = system: A498 renal

SMILES	TGI (HL-60(TB) leukemia) [µM]	TGI (T-47D breast) [µM]	TGI (SN12C renal) [µM]	TGI (HCT-116 colon) [µM]	TGI (UACC-257 melanoma) [µM]	TGI (KM12 colon) [µM]	TGI (NCI-H460 lung) [µM]	TGI (SK-OV-3 ovarian) [µM]	TGI (MCF7 breast) [µM]	TGI (A498 renal) [µM]
CCCCCCCCCCCCCOCCOCCOCCCCC(O)CCCCCCCCCC1=C[C@H](C)OC1=O (stereo partly drawn)	16	> 100	71.4	33.4	37.7	> 100	> 100	> 100	> 100	
CCN(CC)c1c(-c2c(OC(C)C)c(=O)c2=O)c(=O)n2ccsc2c1OC(C)=O	> 100		> 100	> 100	> 100	> 100	> 100	> 100		> 100
CCOC(=O)c1nc2ccccc2nc1Nc1cc(OC)c(OC)c(OC)c1	> 100	> 100	> 100	> 100		> 100	> 100	> 100	> 100	
c1ccc(C/C(=N\Nc2nc3ccccc3[nH]2)c2ccccn2)cc1		15.6	10.9	5.18	1.54	15.4	11.3	0.413	0.607	1.37
CCOc1cc2c(cc1OC)c[n+](C)c1c3cc(OC)c(OC)cc3ccc21	32.2		> 100	> 100	> 100	> 100	> 100	> 100		> 100
CC(=O)Oc1ccc2c(c1)O/C(=C\c1ccc(N(C)C)cc1)C2=O	> 100	> 100	> 100	> 100	> 100	> 100	> 100	> 100	> 100	
C[C@]12CC[C@H]3[C@@H](CC=C4C[C@@H](N5CCCC5)CC[C@@]43C)[C@@H]1C/C(=C\c1ccc([N+](=O)[O-])cc1)[C@@H]2O		46.9	27.5	29.8	31.5	33.2	> 100	30.1	68.9	28.6
CCOP(=O)(OCC)/C(C#N)=C/c1nc[nH]c1C	> 100		> 100	> 100	> 100	> 100	> 100	> 100	> 100	> 100
COC(=O)C12CCCN1CCC2		> 100	> 100	> 100	> 100	> 100	> 100	> 100	> 100	
Cc1cc2c3c(c1)S(=O)(=O)c1cc(Cl)ccc1N3CCC2	> 100		> 100	> 100	> 100	> 100	> 100	> 100	> 100	> 100
Cc1cnoc1/N=C1\C=C(Nc2oncc2C)C(=O)c2ccccc21	> 100		> 100	> 100	> 100	> 100	> 100	> 100		> 100
NC(=O)N/N=C(\Cc1cc(=O)oc2cc(O)ccc12)C(=O)Nc1ccccc1C(N)=O	> 100		> 100	> 100	> 100	> 100	> 100	> 100	> 100	
COc1ccc(/C=C2\C(=O)N(C(=O)c3ccc(NC(C)=O)cc3)N=C2C)cc1OC	> 100		> 100	> 100	> 100	> 100	> 100			
Cc1cccc(-c2cc(=O)c3cccnc3[nH]2)c1	0.654		> 100	> 100		82	> 100	> 100	> 100	
CC(C)(C)c1ccc(O)c(C(O)c2ccccn2)c1 (stereo not drawn)	> 100	80.9	> 100	> 100		> 100	> 100		> 100	
O=[N+]([O-])C(/C(Cl)=C(/Cl)N1CCOCC1)=C1\Nc2ccccc2O1		> 100	> 100	> 100	> 100	> 100	> 100	> 100	> 100	> 100
COc1ccc(Nc2nc3ccccc3nc2-c2cccs2)cc1OC	> 10	> 10	> 10	> 10	> 10	> 10	> 10	> 10	> 10	
COC(=O)c1sc2nc(Nc3ccccc3)c(=Nc3ccccc3)sc2c1C	> 100	> 100	> 100	> 100	> 100	> 100	> 100	> 100		> 100

SMILES	TGI (HL-60(TB) leukemia) [µM]	TGI (T-47D breast) [µM]	TGI (SN12C renal) [µM]	TGI (HCT-116 colon) [µM]	TGI (UACC-257 melanoma) [µM]	TGI (KM12 colon) [µM]	TGI (NCI-H460 lung) [µM]	TGI (SK-OV-3 ovarian) [µM]	TGI (MCF7 breast) [µM]	TGI (A498 renal) [µM]
Cc1c2ccccc2c(=O)n2c(-c3ccccn3)cccc12	> 100		> 100	> 100	> 100	> 100	> 100	> 100		> 100
O=C1C(NS(=O)(=O)c2ccccc2)=C(n2ccnc2)C(=O)c2ccccc21	> 100	> 100	> 100	> 100	> 100	> 100	> 100	> 100	> 100	
Cc1ccc(N=NC(=Nc2ccc(F)cc2)c2ccc(N(CCC#N)CCC#N)cc2)cc1		> 100	> 100	> 100	91.3	> 100	> 100	> 100	> 100	> 100
COc1cc2c(c3nc4ccccc4nc13)-c1ccc(SC)c(=O)cc1[C@@H](NC(C)=O)CC2			> 100	> 100	> 100	> 100	> 100	> 100	> 100	> 65.1
CC(C)C(Sc1nc(-c2ccccc2)c(-c2ccccc2)[nH]1)C(=O)N/N=C/c1ccc(Cl)cc1 (stereo not drawn)	56.6		36.3	29.4	53.7	44.7	52.8	67		43.2
COC(=O)C12C(=O)CC3CCC1C32C(=O)OC (stereo not drawn)			> 100	> 100	> 100	> 100	> 100	> 100	> 100	
O=C1c2cccnc2S(=O)(=O)N1c1ccc(Br)cc1	28.1	> 100	> 100	> 100	> 100	> 100		> 100		> 100
CN(C)c1ccc(-c2c(C#N)c(-c3ccccc3)n(NS(=O)(=O)c3ccccc3)c(=O)c2C#N)cc1			> 100	> 100	> 100	> 100	> 100	> 100	> 100	> 100
CCN1CC2=C(OC(N)=C(C#N)C2c2ccc(Cl)cc2)/C(=C/c2ccc(Cl)cc2)C1 (stereo not drawn)	> 100			54.9	> 100	> 100	> 100	81.5	> 100	37.5
Cc1cccc(C)c1NC(=S)N/C=C(\C#N)C(N)=O			> 100	> 100	> 100	> 100	> 100	> 100	> 100	
CC(Nc1cccc(Cl)c1)c1ccncc1 (stereo not drawn)		> 100	> 100	> 100	> 100	> 100	> 100	> 100	> 100	> 100
OC1C2CN3CCN(C2)CC1(c1ccccc1)C3 (stereo not drawn)	> 100		> 100	> 100	> 100	> 100			> 100	> 100
COC(=O)[C@H](Cc1ccccc1)NC(=O)N(CCN(CCC#N)C(=O)N[C@H](C(=O)OC)C(C)C)c1ccccc1		> 100	> 100	> 100	> 100	> 100		> 100	> 100	> 100
O=C(O)CSC1=NCCN1		> 100	> 100	> 100		> 100	> 100	> 100	> 100	> 100
CC(C)NC1CCCCC2c3ccccc3C12O (stereo not drawn)	> 100		> 100	> 100	> 100	> 100	> 100	> 100		
C[C@]12C(=O)OC[C@H](c3ccccc3)N1C(=O)N(Cc1ccccc1)[C@@H]2CO	> 100		> 100	> 100	> 100	> 100	> 100	> 100	> 100	> 100
CN1CCN(c2n[nH]c(=O)c3c2nnn3Cc2ccccc2)CC1	> 100		> 100	> 100	> 100	> 100	> 100		> 100	
CCO/C(O)=c1/s/c(=C2/SC(=S)N(c3ccc(C)cc3)C2=O)n(-c2ccccc2)c1=N	> 100		> 100	> 100	> 100	> 100	> 100	> 76	> 100	> 100
